This passage reports IC50 results from US20100113549A1, “PYRROLIDINE COMPOUNDS” (ISIS INNOVATION LTD., priority 2004, published 2010).

Read-outs that look alike come from different tables or passages of the source.

What is called IC50 is the midpoint of a concentration-inhibition curve.

Assay [1] concerns the target T1, glucosylceramide synthase (GCS) (Homo sapiens, UniProt Q16739).
T1 construct: assay was conducted using HL-60 cell microsomes as described in the literature; endogenous in cells; host or cells: HL-60 cell microsomes
T1 sequence (Q16739 1-394): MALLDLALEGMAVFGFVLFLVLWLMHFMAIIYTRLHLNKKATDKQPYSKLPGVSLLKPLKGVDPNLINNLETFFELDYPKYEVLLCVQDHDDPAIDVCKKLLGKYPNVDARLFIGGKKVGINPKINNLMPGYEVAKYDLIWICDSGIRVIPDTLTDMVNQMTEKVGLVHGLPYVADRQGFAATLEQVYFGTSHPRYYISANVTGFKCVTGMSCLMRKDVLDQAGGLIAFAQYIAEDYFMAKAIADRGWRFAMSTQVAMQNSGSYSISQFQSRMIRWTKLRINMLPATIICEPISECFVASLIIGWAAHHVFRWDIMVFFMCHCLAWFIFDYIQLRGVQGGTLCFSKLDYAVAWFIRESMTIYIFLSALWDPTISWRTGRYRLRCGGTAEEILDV
Put plainly: Glucosylceramide synthase assay using HL-60 cell microsomes. The class given is biochemical. The settings on record: read-out: IC50 as GCS inhibitors. As for the experimental part:
Glucosylceramide synthase [UDP-glucose N-acyl-sphingosine glucosyltransferase (EC 2.4.1.80)] assay was conducted using HL-60 cell microsomes as described in the literature.^iv
All inhibitors were screened at a concentration of 100 μM against glycosidases and 50 μM against glucosylceramide synthase; all assays were recorded in duplicate.

Assay [2] concerns bovine diarrhoea virus (BVDV). The settings on record: MOI=0.1, literature (ref 16); read-out: IC50 against BVDV; cited from earlier work.
For assay [3], the system named is bovine diarrhoea virus (BVDV). The assay is described as follows: BVDV antiviral assay in MDBK cells, plaque assay of secreted virus. The settings on record: Bovine viral diarrhea virus isolates and strains; MOI=0.5, MDBK cells; read-out: IC50 against BVDV. The class given is cell-based. As for the experimental part: Madin-Darby bovine kidney cells (MDBK) were grown in DMEM/F12 (purchased from Gibco BRL) supplemented with 10% heat-inactivated horse serum (Gibco BRL). The cytopathic NADL strain of bovine viral diarrhoea virus (BVDV) (kindly provided by Dr. Ruben Donis, University of Nebraska) stock was prepared as previously described.^viii For antiviral activity testing MDBK cells were plated into 24 well plates 24 hours before virus infection. Cells were infected with BVDV at moi=0.5 for 1 hour in 100 μL media with occasional rocking of the plate. The inocula were washed twice with media and regular media were added with 100 μM of the test compound. After 24 hours, the supernatant media were saved. Secreted viruses in the media were titred on new MDBK cells by standard plaque assay. Toxicity of the compounds was determined by examining the tissue culture cells after the 24 hour treatment.

As for “1-Butyl-2,3-trans-2-(1-pentylcarbamoyl)-3,4-cis-O-isopropylidene-pyrrolidine [compound 10]”, the IC50 in assay [1] is 117 µM. Consider `CCCCN1C[C@H](O)[C@@H](O)[C@H](O)[C@H]1CO` [NB-DNJ], for which the IC50 in assay [2] was 125 µM.

In the case of `CCCCCNC(=O)C1NCC2OC(C)(C)OC21` (stereo not drawn) [compound 11, 2,3-trans-2-(1-Pentylcarbamoyl)-3,4-cis-O-isopropylidene-pyrrolidine], the IC50 in assay [1] stood at 140 µM. `CCCC(C)NC(=O)C1[C@H](O)[C@@H](O)CN1C(=O)c1cccc(N(C)C)c1` (stereo partly shown) [9viiG]: the IC50 in assay [3] is 30 µM. With `CCCCCCCCCN1C[C@H](O)[C@@H](O)[C@H](O)[C@H]1CO` [NN-DNJ], the IC50 in assay [2] is 10 µM. Take `CC(C)NC(=O)C1[C@H](O)[C@@H](O)CN1C(=O)c1ccoc1` (stereo partly shown) [9viiiF]: the IC50 in assay [3] stood at 30 µM. `CC(C)(C)CC(C)(C)NC(=O)C1[C@H](O)[C@@H](O)CN1C(=O)c1ccccc1` (stereo partly shown) [9iiA]: in assay [3], the IC50 worked out at 25 µM.
